The values below come from patent US12281149B2, “Modulators of G-protein coupled receptors” (priority 2021, dated 2025).

*1 amine or outer side, *2 acyl side, *3 side chain or, on linkers, in order; H or OH if unused. Where a SMILES comes first, the peptide text is derived from it. Side-chain parts run from the residue outwards. [ ]: non-standard residue; d: D form. The star is where a group is joined. C20 diacid = O=C(O)CCCCCCCCCCCCCCCCCCC(=O)*; αMePhe(2-F) = C[C@](N)(Cc1ccccc1F)C(=O)O; γGlu = O=C(O)[C@H](CCC(=O)[*:2])N[*:1]; X62 = O=C(C1(c2cccc(Cl)c2)CCCC1)*; X79 = O=C1CC(C(=O)*)(c2ccccn2)CN1; X64 = CC(C)(C(=O)*)c1ccccn1; X76 = CC(C)(C(=O)*)c1cncnc1; AEEA = NCCOCCOCC(=O)O; Aib = CC(C)(N)C(=O)O; βAla = NCCC(=O)O

Common to all, as to assay type: cell-based
The target in experiment [1] is T1, GLP-1 receptor (Homo sapiens, UniProt P43220). Nature of the experiment: PathHunter β-arrestin assay, GLP-1 receptor. On the set-up: host or cells: PathHunter CHO-K1 GLP1R β-Arrestin Cell Line. The following applies: β-arrestin-2 recruitment, PathHunter CHO-K1 GLP1R β-Arrestin Cell Line, 90 min at 37° C.; normalized to GLP-1; read-out: GLP-1R β Arrestin EC50. Background: Recruitment of arrestin is a read-out of receptor activation apart from second messengers.
T1 sequence (P43220 24-463): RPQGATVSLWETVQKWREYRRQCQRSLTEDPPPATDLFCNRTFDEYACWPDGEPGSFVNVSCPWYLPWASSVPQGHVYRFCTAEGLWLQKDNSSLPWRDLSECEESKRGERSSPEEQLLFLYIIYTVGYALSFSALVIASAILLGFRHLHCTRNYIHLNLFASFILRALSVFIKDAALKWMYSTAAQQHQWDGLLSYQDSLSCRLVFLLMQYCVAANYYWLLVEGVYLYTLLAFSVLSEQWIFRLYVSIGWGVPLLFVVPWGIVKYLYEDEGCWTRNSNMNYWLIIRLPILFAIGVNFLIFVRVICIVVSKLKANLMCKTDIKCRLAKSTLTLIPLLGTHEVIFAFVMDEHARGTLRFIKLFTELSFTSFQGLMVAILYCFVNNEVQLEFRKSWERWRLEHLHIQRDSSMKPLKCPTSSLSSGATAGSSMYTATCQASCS

Experiment [2] has as its target T2, GIP receptor (Homo sapiens, UniProt P48546).
T2 sequence (P48546 22-466): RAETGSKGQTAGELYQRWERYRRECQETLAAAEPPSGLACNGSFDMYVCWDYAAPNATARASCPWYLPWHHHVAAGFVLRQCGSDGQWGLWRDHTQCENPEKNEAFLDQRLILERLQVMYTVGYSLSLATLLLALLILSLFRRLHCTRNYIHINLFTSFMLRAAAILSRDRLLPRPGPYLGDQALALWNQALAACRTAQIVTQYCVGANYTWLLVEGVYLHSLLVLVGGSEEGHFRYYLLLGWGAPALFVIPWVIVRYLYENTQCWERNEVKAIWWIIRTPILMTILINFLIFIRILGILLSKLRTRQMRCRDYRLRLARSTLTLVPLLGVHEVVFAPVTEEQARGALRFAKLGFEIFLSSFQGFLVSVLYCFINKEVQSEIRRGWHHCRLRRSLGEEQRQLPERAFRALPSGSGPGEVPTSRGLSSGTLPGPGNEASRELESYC
In words: HitHunter cAMP assay, GIP receptor. The following applies: for EC50: CHO cells stably expressing GIP receptor, cAMP accumulation, 30 min, read-out: EC50 GIP-1R; for Emax: CHO cells, cAMP, normalized to maximum signal from GIP (high) and DMSO (low), read-out: Emax GIP-1R.

In experiment [3] the target is T1, GLP-1 receptor. In words: HitHunter cAMP assay, GLP-1 receptor. As to conditions: for EC50: CHO cells stably expressing human GLP-1 receptor, cAMP accumulation, 30 min, read-out: EC50 GLP-1R; for Emax: CHO cells, cAMP, normalized to maximum signal from GLP-1 (high) and DMSO (low), read-out: Emax GLP-1R. Background: Cyclic AMP is a second messenger, typically raised through Gs and lowered through Gi signalling.

In experiment [4] the target is T2, GIP receptor. Nature of the experiment: PathHunter β-arrestin assay, GIP receptor. On the set-up: host or cells: PathHunter CHO-K1 GIPR β-Arrestin Cell Line. As to conditions: β-arrestin-2 recruitment, PathHunter CHO-K1 GIPR β-Arrestin Cell Line, 90 min at 37° C.; normalized to GIP; read-out: GIPR β Arrestin EC50.

Consider `CC[C@H](C)[C@H](NC(=O)[C@H](CC(C)C)NC(=O)[C@H](Cc1c[nH]c2ccccc12)NC(=O)[C@H](CCC(N)=O)NC(=O)[C@@H](NC(=O)[C@H](Cc1ccccc1)NC(=O)[C@H](C)NC(=O)[C@H](CCCCNC(=O)COCCOCCNC(=O)COCCOCCNC(=O)CC[C@H](NC(=O)CCCCCCCCCCCCCCCCCCC(=O)O)C(=O)O)NC(=O)[C@H](CCC(N)=O)NC(=O)[C@H](C)NC(=O)[C@@H](NC(=O)[C@H](CCCCN)NC(=O)[C@H](CC(=O)O)NC(=O)[C@H](CC(C)C)NC(=O)C(C)(C)NC(=O)[C@@H](NC(=O)[C@H](CO)NC(=O)[C@H](Cc1ccc(O)cc1)NC(=O)[C@H](CC(=O)O)NC(=O)[C@H](CO)NC(=O)[C@@H](NC(=O)[C@](C)(Cc1ccccc1F)NC(=O)[C@@H](NC(=O)CNC(=O)[C@H](CCC(=O)O)NC(=O)CCNC(=O)C1(c2cccc(Cl)c2)CCCC1)[C@@H](C)O)[C@@H](C)O)[C@@H](C)CC)[C@@H](C)CC)C(C)C)C(=O)N[C@@H](C)C(=O)NCC(=O)NCC(=O)N1CCC[C@H]1C(=O)N[C@@H](CO)C(=O)N[C@@H](CO)C(=O)NCC(=O)N[C@@H](C)C(=O)N1CCC[C@H]1C(=O)N1CCC[C@H]1C(=O)N1CCC[C@H]1C(=O)N[C@@H](CO)C(N)=O` [Compound 179] ({X62-βAla}-EGT[αMePhe(2-F)]TSDYSI[Aib]LDKIAQK([AEEA-AEEA-γGlu-C20 diacid])AFVQWLIAGGPSSGAPPPS-NH2), for which the EC50 is above 1000 nM in experiment [1], 0.1 to 1 nM in experiment [2], 0.1 to 1 nM in experiment [3] and below 1000 nM in experiment [4]. The Emax in experiment [2] was 106%; in experiment [3], 100%.
As to `CC[C@H](C)[C@H](NC(=O)[C@H](CC(C)C)NC(=O)[C@H](Cc1c[nH]c2ccccc12)NC(=O)[C@H](CCC(N)=O)NC(=O)[C@@H](NC(=O)[C@H](Cc1ccccc1)NC(=O)[C@H](C)NC(=O)[C@H](CCCCNC(=O)COCCOCCNC(=O)COCCOCCNC(=O)CC[C@H](NC(=O)CCCCCCCCCCCCCCCCCCC(=O)O)C(=O)O)NC(=O)[C@H](CCC(N)=O)NC(=O)[C@H](C)NC(=O)[C@@H](NC(=O)[C@H](CCCCN)NC(=O)[C@H](CC(=O)O)NC(=O)[C@H](CC(C)C)NC(=O)C(C)(C)NC(=O)[C@@H](NC(=O)[C@H](CO)NC(=O)[C@H](Cc1ccc(O)cc1)NC(=O)[C@H](CC(=O)O)NC(=O)[C@H](CO)NC(=O)[C@@H](NC(=O)[C@H](Cc1ccccc1)NC(=O)[C@@H](NC(=O)CNC(=O)[C@H](CCC(=O)O)NC(=O)CCNC(=O)C(C)(C)c1ccccn1)[C@@H](C)O)[C@@H](C)O)[C@@H](C)CC)[C@@H](C)CC)C(C)C)C(=O)N[C@@H](C)C(=O)NCC(=O)NCC(=O)N1CCC[C@H]1C(=O)N[C@@H](CO)C(=O)N[C@@H](CO)C(=O)NCC(=O)N[C@@H](C)C(=O)N1CCC[C@H]1C(=O)N1CCC[C@H]1C(=O)N1CCC[C@H]1C(=O)N[C@@H](CO)C(N)=O` [Compound 237] ({X64-βAla}-EGTFTSDYSI[Aib]LDKIAQK([AEEA-AEEA-γGlu-C20 diacid])AFVQWLIAGGPSSGAPPPS-NH2), the EC50 in experiment [1] is above 1000 nM; in experiment [2] it was 1 to 10 nM; in experiment [3] it was below 0.1 nM; in experiment [4], below 1000 nM. Also, the results for the Emax in experiment [2] and in experiment [3] were 91% and 93%, respectively.
In the case of `CC[C@H](C)[C@H](NC(=O)[C@H](CC(C)C)NC(=O)[C@H](Cc1c[nH]c2ccccc12)NC(=O)[C@H](CCC(N)=O)NC(=O)[C@@H](NC(=O)[C@H](Cc1ccccc1)NC(=O)[C@H](C)NC(=O)[C@H](CCCCNC(=O)COCCOCCNC(=O)COCCOCCNC(=O)CC[C@H](NC(=O)CCCCCCCCCCCCCCCCCCC(=O)O)C(=O)O)NC(=O)[C@H](CCC(N)=O)NC(=O)[C@H](C)NC(=O)[C@@H](NC(=O)[C@H](CCCCN)NC(=O)[C@H](CC(=O)O)NC(=O)[C@H](CC(C)C)NC(=O)C(C)(C)NC(=O)[C@@H](NC(=O)[C@H](CO)NC(=O)[C@H](Cc1ccc(O)cc1)NC(=O)[C@H](CC(=O)O)NC(=O)[C@H](CO)NC(=O)[C@@H](NC(=O)[C@H](Cc1ccccc1)NC(=O)[C@@H](NC(=O)CNC(=O)[C@H](CCC(=O)O)NC(=O)CCNC(=O)C(C)(C)c1cncnc1)[C@@H](C)O)[C@@H](C)O)[C@@H](C)CC)[C@@H](C)CC)C(C)C)C(=O)N[C@@H](C)C(=O)NCC(=O)NCC(=O)N1CCC[C@H]1C(=O)N[C@@H](CO)C(=O)N[C@@H](CO)C(=O)NCC(=O)N[C@@H](C)C(=O)N1CCC[C@H]1C(=O)N1CCC[C@H]1C(=O)N1CCC[C@H]1C(=O)N[C@@H](CO)C(N)=O` [Compound 161] ({X76-βAla}-EGTFTSDYSI[Aib]LDKIAQK([AEEA-AEEA-γGlu-C20 diacid])AFVQWLIAGGPSSGAPPPS-NH2), the EC50 in experiment [1] was above 1000 nM; in experiment [2], 10 to 100 nM; in experiment [3], 0.1 to 1 nM; in experiment [4] it was above 1000 nM. Further, the figures for the Emax in experiment [2] and in experiment [3] were 94% and 113%, respectively.
Consider `CC[C@H](C)[C@H](NC(=O)[C@H](CC(C)C)NC(=O)[C@H](Cc1c[nH]c2ccccc12)NC(=O)[C@H](CCC(N)=O)NC(=O)[C@@H](NC(=O)[C@H](Cc1ccccc1)NC(=O)[C@H](C)NC(=O)[C@H](CCCCNC(=O)COCCOCCNC(=O)COCCOCCNC(=O)CC[C@H](NC(=O)CCCCCCCCCCCCCCCCCCC(=O)O)C(=O)O)NC(=O)[C@H](CCC(N)=O)NC(=O)[C@H](C)NC(=O)[C@@H](NC(=O)[C@H](CCCCN)NC(=O)[C@H](CC(=O)O)NC(=O)[C@H](CC(C)C)NC(=O)C(C)(C)NC(=O)[C@@H](NC(=O)[C@H](CO)NC(=O)[C@H](Cc1ccc(O)cc1)NC(=O)[C@H](CC(=O)O)NC(=O)[C@H](CO)NC(=O)[C@@H](NC(=O)[C@H](Cc1ccccc1)NC(=O)[C@@H](NC(=O)CNC(=O)[C@H](CCC(=O)O)NC(=O)CCNC(=O)C1(c2ccccn2)CNC(=O)C1)[C@@H](C)O)[C@@H](C)O)[C@@H](C)CC)[C@@H](C)CC)C(C)C)C(=O)N[C@@H](C)C(=O)NCC(=O)NCC(=O)N1CCC[C@H]1C(=O)N[C@@H](CO)C(=O)N[C@@H](CO)C(=O)NCC(=O)N[C@@H](C)C(=O)N1CCC[C@H]1C(=O)N1CCC[C@H]1C(=O)N1CCC[C@H]1C(=O)N[C@@H](CO)C(N)=O` (stereo partly drawn) [Compound 151] ({X79-βAla}-EGTFTSDYSI[Aib]LDKIAQK([AEEA-AEEA-γGlu-C20 diacid])AFVQWLIAGGPSSGAPPPS-NH2), for which the half-maximal effective concentration (EC50) in experiment [1] is above 1000 nM; in experiment [2], 1 to 10 nM; in experiment [3] it was 1 to 10 nM; in experiment [4] it was above 1000 nM. The maximal response (Emax) in experiment [2] amounted to 105%; in experiment [3], 101%.

Broadly, the EC50 is the midpoint of the concentration-response curve. As a reminder, the Emax is the size of the effect at its maximum, as opposed to the concentration needed.
